Test results reported in PMC7827417, “Steroid Glycosides Hyrcanoside and Deglucohyrcanoside: On Isolation, Structural Identification, and Anticancer Activity” (Foods, 2021).
Read-outs that look alike come from different tables or passages of the source.

Columns and labels:
BJ = experiment: MTS cytotoxic assay, BJ; type: cell-based; conditions: Homo sapiens, 72 h
From the text: (§1) If not indicated otherwise, the cell lines were purchased from the American Type Culture Collection (ATCC). […] K562 is the erythroid-myeloid precursor cell line derived from chronic myeloid leukemia carrying the BCR-ABL hybrid gene. A549, MCF-7, PC-3, 5637, U-2 OS, and MiaPaCa-2 are cells derived from lung, breast, prostate, bladder carcinoma, osteosarcoma, and pancreatic adenocarcinoma, respectively. HEK 293T are transformed human embryonic kidney cells, and L929 (Sigma, St. Louis, MS, USA) are transformed mouse fibroblasts. HCT116, cells from colorectal carcinoma, and their p53 gene knock-out variant (HCT116p53-/-) were purchased from Horizon Discovery. This cell line is a model of human tumors bearing p53 loss-of-function mutations or biallelic deletion of the p53 gene, frequently associated with poor prognosis. The MRC-5 and BJ cells were used as noncancerous cells; more specifically, they are human fibroblasts from the lungs and foreskin, respectively. According to the supplier’s recommendations, all cells were cultured at 37 °C in a 5% CO2 atmosphere and 100% humidity. The culture media used were: DMEM, RPMI 1640, and MEM (according to a cell line); all were supplemented with 5 g L^−1 glucose, 10% fetal calf serum, 2 mM glutamine, 100 U mL^−1 penicillin, 100 µg mL^−1 streptomycin, and NaHCO3. Cells were passaged every two or three days using 0.25% trypsin plus 0.01% EDTA (ethylenediamine tetraacetic acid) in phosphate-buffered saline.
(§2) To evaluate compound cytotoxicity, cells were seeded in 384-well microtiter plates in a volume of […]. The next day, aliquots of the tested derivatives were transferred with Echo550 acoustic liquid handler (Labcyte) to obtain dose response curves with dilution factor 4. The experiments were performed in technical duplicates and three or more biological replicates. After 72 h of incubation in a humidified incubator, […] of the MTS/PMS stock solution were pipetted into each well. After another 1–4 h of incubation, the absorbance at 490 nm was measured using an EnVision Multilabel Plate Reader (PerkinElmer).

PC-3 = experiment: MTS cytotoxic assay, PC-3; type: cell-based; conditions: Homo sapiens
From the text: as §1, §2

U-2 OS = experiment: MTS cytotoxic assay, U-2 OS; type: cell-based; conditions: Homo sapiens, U2OS, 72 h
From the text: as §1, §2

HCT116p53-/- = experiment: MTS cytotoxic assay, HCT116p53-/-; type: cell-based; conditions: Homo sapiens, 72 h
From the text: as §1, §2

MCF-7 = experiment: MTS cytotoxic assay, MCF-7; type: cell-based; conditions: Homo sapiens
From the text: as §1, §2

CCRF-CEM cells = experiment: Cell cycle arrest and cell death analysis by flow cytometry (propidium iodide, pH3Ser10); type: cell-based, human; conditions: % of positive cells
Procedure: Together with the CG-treated cells, a vehicle-treated sample was harvested at the same time point. After 24 h, the cells were washed with cold phosphate-buffered saline, fixed dropwise in 70% ethanol, and stored overnight at −20 °C. The cells were then washed with hypotonic citrate buffer, treated with RNAse (50 µg mL^−1), and stained with propidium iodide. Flow cytometry using a 488 nm laser (FACS-Calibur, Becton Dickinson, NJ, USA) was used for measurement. The cell cycle was analyzed by the ModFitLT program (Verity), and apoptosis was measured in a logarithmic model expressing the percentage of particles with a lower propidium content than cells in the G0/G1 phase (<G1) of the cell cycle in the CellQuest program (Becton Dickinson). Half of the sample was used to label cells with pH3^Ser10-FITC antibody (Exbio) for subsequent flow cytometry analysis of mitotic cells.

5637 = experiment: MTS cytotoxic assay, 5637; type: cell-based; conditions: Homo sapiens, 72 h
From the text: as §1, §2

MRC-5 = experiment: MTS cytotoxic assay, MRC-5; type: cell-based; conditions: Homo sapiens
From the text: as §1, §2

K562 = experiment: MTS cytotoxic assay, K562; type: cell-based; conditions: Homo sapiens
From the text: as §1, §2

A549 = experiment: MTS cytotoxic assay, A549; type: cell-based; conditions: Homo sapiens
From the text: as §1, §2

HEK 293T = experiment: MTS cytotoxic assay, HEK 293T; type: cell-based; conditions: Homo sapiens, 72 h
From the text: as §1, §2

HCT116 = experiment: MTS cytotoxic assay, HCT116; type: cell-based; conditions: Homo sapiens
From the text: as §1, §2

SH-SY5Y cells = tested on: SH-SY5Y cells; parameters: method as in PMID 25838173; conditions: cited from earlier work
[1] = tested on: rat vascular smooth muscle cells, endothelial cells, and astrocytes; parameters: method as in PMID 26067145; conditions: high concentrations of Ob (3–3000 μM) ref 54; cited from earlier work

Row | Structure (SMILES) | IC50 (BJ; BJ) [nM] | IC50 (PC-3; PC-3, 72 h) [nM] | IC50 (U-2 OS) [nM] | IC50 (HCT116p53-/-) [nM] | IC50 (MCF-7; MCF7, 72 h) [nM] | < G1 (apoptotic cells) (CCRF-CEM cells; 1 × IC50, 24 h) [%] | G0/G1 (CCRF-CEM cells; 1 × IC50, 24 h) [%] | G2/M (CCRF-CEM cells; 1 × IC50, 24 h) [%] | M (Phospho-Histone3 (Ser10)) (CCRF-CEM cells; 1 × IC50, 24 h) [%] | S (CCRF-CEM cells; 1 × IC50, 24 h) [%] | < G1 (apoptotic cells) (CCRF-CEM cells; 5 × IC50, 24 h) [%] | G0/G1 (CCRF-CEM cells; 5 × IC50, 24 h) [%] | G2/M (CCRF-CEM cells; 5 × IC50, 24 h) [%] | M (Phospho-Histone3 (Ser10)) (CCRF-CEM cells; 5 × IC50, 24 h) [%] | S (CCRF-CEM cells; 5 × IC50, 24 h) [%] | IC50 5637 [nM] | IC50 (MRC-5; MRC5, 72 h) [nM] | IC50 (K562; K562, 72 h) [nM] | IC50 (A549; A549, 72 h) [nM] | IC50 (HEK 293T; HEK-293T) [nM] | also measured
1 | C[C@]12CC[C@H]3[C@@H](CCC4=C[C@@H](O[C@@H]5OC[C@@H](O)[C@H](O)[C@H]5O)CC[C@@]43C=O)[C@@]1(O)CC[C@@H]2C1=CC(=O)OC1 [deHyr, deglucohyrcanoside] | 230 ± 35 | 122 ± 4.7 | 165 ± 11 | 130 ± 23 | 119 ± 6.4 | 22.02 | 44.90 | 37.50 | 1.44 | 17.60 | 27.43 | 39.12 | 26.34 | 1.56 | 34.53 | 398 ± 46 | 77 ± 12 | 130 ± 21 | 90 ± 14 | 38 ± 0.97 | IC50 (HCT116; HCT-116, 72 h): 140 ± 16 nM
2 | CO[C@H]1C[C@H](O[C@H]2CC[C@]3(C=O)[C@H]4CC[C@]5(C)[C@@H](C6=CC(=O)OC6)CC[C@]5(O)[C@@H]4CC[C@]3(O)C2)O[C@H](C)[C@H]1O [Cy, cymarin] | 54 ± 10 | 26 ± 2.9 | 43 ± 1.8 | 19 ± 3.8 | 29 ± 8.1 | 2.89 | 35.78 | 24.35 | 1.43 | 39.87 | 7.01 | 40.34 | 28.49 | 1.08 | 31.17 | 89 ± 5.5 | 26 ± 2.4 | 25 ± 4.5 | 15 ± 1.8 | 3.02 ± 1.4 | IC50 (HCT116; HCT-116, 72 h): 21 ± 2.5 nM
3 | C[C@]12CC[C@H]3[C@@H](CCC4=C[C@@H](O[C@@H]5OC[C@@H](O[C@@H]6O[C@H](CO)[C@@H](O)[C@H](O)[C@H]6O)[C@H](O)[C@H]5O)CC[C@@]43C=O)[C@@]1(O)CC[C@@H]2C1=CC(=O)OC1 [Hyr, (3β)-3-[(4-O-β-D-glucopyranosyl-β-D-xylopyranosyl)oxy]-14-hydroxy-19-oxocarda-4,20(22)-dienolide] | 1450 ± 250 | 756 ± 29 | 1100 ± 59 | 730 ± 98 | 566 ± 29 | 2.82 | 38.48 | 26.30 | 1.41 | 35.22 | 5.82 | 42.13 | 34.86 | 0.95 | 23.01 | 1510 ± 51 | 302 ± 43 | 800 ± 52 | 550 ± 38 | 383 ± 8.9 | IC50 (HCT116; HCT-116, 72 h): 670 ± 37 nM
4 | C[C@@H]1O[C@@H](O[C@H]2C[C@@H](O)[C@]3(CO)[C@H]4[C@H](O)C[C@]5(C)[C@@H](C6=CC(=O)OC6)CC[C@]5(O)[C@@H]4CC[C@]3(O)C2)[C@H](O)[C@H](O)[C@H]1O [Ob, ouabain] |  |  |  |  |  | 20.68 | 40.42 | 33.80 | 1.73 | 25.78 | 33.31 | 33.94 | 25.27 | 0.63 | 40.80 |  |  |  |  |  | IC50 (BJ; BJ noncancerous foreskin fibroblasts, MTS, read-out: IC50): 54 ± 9.9 nM; IC50 (PC-3; PC-3, MTS, 72 h, read-out: IC50): 49 ± 1.4 nM; IC50 (U-2 OS; U-2 OS, MTS, read-out: IC50): 59 ± 1.1 nM; IC50 (HCT116p53-/-; HCT116p53-/-, MTS, read-out: IC50): 28 ± 7.6 nM; IC50 (MCF-7; MCF7, MCF-7, MTS, 72 h, read-out: IC50): 52 ± 5.6 nM; IC50 (5637; 5637, MTS, read-out: IC50): 110 ± 11 nM; IC50 (MRC-5; MRC5, MRC-5 noncancerous lung fibroblasts, MTS, 72 h, read-out: IC50): 39 ± 1.6 nM; reduction of viability (SH-SY5Y cells; 24 h ref 53): 40%; reduction of viability (SH-SY5Y cells; 48 h ref 53): 10%; IC50 (K562; K562, MTS, 72 h, read-out: IC50): 57 ± 6.2 nM; survival of rodent cells (in words) [1]: perfectly survived; IC50 (A549; A549, MTS, 72 h, read-out: IC50): 22 ± 0.94 nM; IC50 (HEK 293T; HEK 293T, MTS, read-out: IC50): 35 ± 1.2 nM; IC50 (HCT116; HCT-116, HCT116, MTS, 72 h, read-out: IC50): 30 ± 3.6 nM
